From article PMC10788528 (The Journal of Biological Chemistry, 2023)
Several values for one entry are separate records, joined by “and”; a condition that tells them apart may be missing. Equal entries are not always repeated. Where two headings read alike, the source gives them in different places.

Experiments:
adult S. mansoni worms [1] = assay: Adult schistosome movement; format: cell-based, Schistosoma mansoni
Sm.TRPMMCLZ [2] = target: T1, Sm.TRPMMCLZ (Schistosoma mansoni, UniProt A0A5K4FCC0); assay: Ca2+ reporter assay; format: cell-based; conditions: Activation of Sm.TRPMMCLZ, EC50, HEK293 cells, cytoplasmic Ca2+ (Fluo-4)
T1 sequence (A0A5K4FCC0 1-1380): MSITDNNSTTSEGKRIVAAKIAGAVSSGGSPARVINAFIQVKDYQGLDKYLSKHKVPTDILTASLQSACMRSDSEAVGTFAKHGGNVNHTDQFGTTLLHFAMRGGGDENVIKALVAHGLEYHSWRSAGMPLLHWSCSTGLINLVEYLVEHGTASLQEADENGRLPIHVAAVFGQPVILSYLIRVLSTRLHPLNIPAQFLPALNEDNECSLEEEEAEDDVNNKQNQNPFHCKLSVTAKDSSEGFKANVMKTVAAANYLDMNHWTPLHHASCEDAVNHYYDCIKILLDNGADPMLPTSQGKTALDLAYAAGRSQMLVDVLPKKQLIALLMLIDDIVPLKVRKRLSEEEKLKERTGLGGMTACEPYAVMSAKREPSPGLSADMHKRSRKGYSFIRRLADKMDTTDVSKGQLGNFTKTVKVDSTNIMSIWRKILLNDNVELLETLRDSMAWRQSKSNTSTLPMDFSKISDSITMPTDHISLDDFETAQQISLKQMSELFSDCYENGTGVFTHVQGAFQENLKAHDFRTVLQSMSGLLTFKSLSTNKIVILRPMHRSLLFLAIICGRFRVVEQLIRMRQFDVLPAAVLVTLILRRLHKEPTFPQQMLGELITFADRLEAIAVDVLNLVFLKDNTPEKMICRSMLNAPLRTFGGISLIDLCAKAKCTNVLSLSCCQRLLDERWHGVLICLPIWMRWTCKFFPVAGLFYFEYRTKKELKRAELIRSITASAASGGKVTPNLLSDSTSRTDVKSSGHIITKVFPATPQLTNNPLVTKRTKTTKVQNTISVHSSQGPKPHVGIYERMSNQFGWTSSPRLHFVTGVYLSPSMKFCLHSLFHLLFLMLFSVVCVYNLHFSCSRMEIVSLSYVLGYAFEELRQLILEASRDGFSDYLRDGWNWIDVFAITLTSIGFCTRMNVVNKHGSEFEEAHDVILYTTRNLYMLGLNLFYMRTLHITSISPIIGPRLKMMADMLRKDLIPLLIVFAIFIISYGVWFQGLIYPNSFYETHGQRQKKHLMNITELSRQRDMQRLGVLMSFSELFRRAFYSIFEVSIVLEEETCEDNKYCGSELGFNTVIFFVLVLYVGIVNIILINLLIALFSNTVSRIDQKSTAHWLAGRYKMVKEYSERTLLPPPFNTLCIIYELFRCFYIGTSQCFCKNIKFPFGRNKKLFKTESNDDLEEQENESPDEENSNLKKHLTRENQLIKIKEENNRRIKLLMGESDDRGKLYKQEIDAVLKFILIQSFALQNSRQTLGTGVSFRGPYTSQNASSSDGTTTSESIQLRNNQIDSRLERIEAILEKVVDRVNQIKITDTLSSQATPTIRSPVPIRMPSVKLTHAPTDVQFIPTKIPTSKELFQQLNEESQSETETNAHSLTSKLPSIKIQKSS

Sm.TRPMPZQ = Sm.TRPMPZQ (Schistosoma mansoni, UniProt A0A5K4F0X5); assay: Ca2+ reporter assay; format: cell-based
Sh.TRPMMCLZ = Sh.TRPMMCLZ (Schistosoma haematobium, UniProt A0A922LUV1); assay: Ca2+ reporter assay, Sh.TRPMMCLZ; format: cell-based
Sh.TRPMMCLZ, sequence (A0A922LUV1 1-1380): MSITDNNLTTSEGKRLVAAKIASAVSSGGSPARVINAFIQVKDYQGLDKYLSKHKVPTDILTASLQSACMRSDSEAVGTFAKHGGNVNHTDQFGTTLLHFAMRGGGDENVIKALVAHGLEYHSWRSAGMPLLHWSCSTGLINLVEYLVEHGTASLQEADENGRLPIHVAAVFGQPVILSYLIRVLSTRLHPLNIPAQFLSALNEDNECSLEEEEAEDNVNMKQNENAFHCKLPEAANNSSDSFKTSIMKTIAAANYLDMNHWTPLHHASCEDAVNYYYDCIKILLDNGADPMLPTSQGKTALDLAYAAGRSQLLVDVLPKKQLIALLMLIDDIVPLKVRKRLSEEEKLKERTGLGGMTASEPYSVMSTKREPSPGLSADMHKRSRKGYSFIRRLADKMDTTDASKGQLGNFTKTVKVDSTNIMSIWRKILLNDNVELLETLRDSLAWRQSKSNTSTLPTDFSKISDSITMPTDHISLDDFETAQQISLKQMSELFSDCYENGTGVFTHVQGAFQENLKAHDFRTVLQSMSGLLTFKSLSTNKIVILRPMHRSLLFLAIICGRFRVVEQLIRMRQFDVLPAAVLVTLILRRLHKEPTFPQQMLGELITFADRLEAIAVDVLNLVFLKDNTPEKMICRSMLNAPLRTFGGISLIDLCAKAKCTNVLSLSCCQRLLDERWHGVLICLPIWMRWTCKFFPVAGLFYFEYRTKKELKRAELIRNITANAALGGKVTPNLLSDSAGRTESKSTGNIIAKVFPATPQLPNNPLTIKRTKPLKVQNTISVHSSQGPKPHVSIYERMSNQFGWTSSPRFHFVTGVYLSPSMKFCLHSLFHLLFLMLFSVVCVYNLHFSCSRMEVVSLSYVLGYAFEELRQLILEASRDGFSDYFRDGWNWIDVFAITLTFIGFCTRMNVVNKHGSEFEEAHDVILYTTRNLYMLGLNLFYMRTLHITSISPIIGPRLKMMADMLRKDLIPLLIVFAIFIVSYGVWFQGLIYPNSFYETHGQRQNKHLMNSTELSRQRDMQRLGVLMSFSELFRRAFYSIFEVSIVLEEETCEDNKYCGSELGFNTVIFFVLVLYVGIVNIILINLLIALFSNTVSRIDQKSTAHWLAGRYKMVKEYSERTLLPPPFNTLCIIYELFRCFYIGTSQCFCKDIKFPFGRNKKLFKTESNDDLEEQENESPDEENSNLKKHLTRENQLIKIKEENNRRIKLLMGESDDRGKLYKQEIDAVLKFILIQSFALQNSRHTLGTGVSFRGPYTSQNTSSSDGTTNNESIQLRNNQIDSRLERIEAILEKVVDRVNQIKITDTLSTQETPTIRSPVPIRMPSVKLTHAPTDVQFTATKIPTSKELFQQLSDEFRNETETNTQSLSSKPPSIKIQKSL

Sj.TRPMMCLZ = Sj.TRPMMCLZ (Schistosoma japonicum, UniProt A0A4Z2D8Z3); assay: Ca2+ reporter assay, Sj.TRPMMCLZ; format: cell-based
Sj.TRPMMCLZ, sequence (A0A4Z2D8Z3 1-1377): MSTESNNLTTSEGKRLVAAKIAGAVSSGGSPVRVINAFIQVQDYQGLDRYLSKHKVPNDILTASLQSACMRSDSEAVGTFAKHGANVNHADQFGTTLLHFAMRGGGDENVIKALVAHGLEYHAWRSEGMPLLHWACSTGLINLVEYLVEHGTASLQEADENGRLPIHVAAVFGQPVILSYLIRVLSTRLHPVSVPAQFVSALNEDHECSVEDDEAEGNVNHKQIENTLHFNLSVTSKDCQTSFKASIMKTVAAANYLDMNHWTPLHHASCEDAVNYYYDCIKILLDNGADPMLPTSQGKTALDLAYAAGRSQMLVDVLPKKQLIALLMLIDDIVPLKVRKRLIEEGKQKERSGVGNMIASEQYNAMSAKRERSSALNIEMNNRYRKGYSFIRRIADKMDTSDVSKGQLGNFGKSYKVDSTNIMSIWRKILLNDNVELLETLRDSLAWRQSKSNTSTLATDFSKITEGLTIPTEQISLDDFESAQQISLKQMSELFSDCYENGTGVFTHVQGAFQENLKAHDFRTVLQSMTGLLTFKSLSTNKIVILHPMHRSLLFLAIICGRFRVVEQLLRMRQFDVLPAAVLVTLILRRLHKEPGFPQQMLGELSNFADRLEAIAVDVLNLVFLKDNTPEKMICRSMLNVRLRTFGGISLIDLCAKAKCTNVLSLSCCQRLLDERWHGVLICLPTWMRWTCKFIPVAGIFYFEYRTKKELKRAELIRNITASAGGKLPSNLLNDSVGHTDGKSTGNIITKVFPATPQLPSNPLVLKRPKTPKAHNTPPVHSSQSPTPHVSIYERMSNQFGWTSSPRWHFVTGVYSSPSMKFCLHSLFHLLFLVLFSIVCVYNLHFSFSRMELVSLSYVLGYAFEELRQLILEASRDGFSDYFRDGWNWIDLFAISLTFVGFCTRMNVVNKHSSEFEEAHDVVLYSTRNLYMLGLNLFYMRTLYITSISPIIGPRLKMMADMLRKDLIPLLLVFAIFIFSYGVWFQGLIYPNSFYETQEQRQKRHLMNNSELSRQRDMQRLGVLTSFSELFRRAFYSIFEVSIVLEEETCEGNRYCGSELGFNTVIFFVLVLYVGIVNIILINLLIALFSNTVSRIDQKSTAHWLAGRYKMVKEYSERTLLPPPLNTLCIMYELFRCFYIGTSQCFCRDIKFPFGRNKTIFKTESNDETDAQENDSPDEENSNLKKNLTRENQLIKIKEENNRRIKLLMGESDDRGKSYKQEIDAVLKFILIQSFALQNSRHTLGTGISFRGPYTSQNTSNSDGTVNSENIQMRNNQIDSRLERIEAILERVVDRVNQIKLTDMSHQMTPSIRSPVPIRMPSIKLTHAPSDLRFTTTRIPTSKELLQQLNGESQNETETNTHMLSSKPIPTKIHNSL

St.TRPMMCLZ = assay: Ca2+ reporter assay, St.TRPMMCLZ; format: cell-based, Schistosoma turkestanicum; conditions: read-out: Activation of St.TRPMMCLZ, EC50
Sb.TRPMMCLZ = Sb.TRPMMCLZ (Schistosoma bovis, UniProt A0A430Q971); assay: Ca2+ reporter assay, Sb.TRPMMCLZ; format: cell-based
Sb.TRPMMCLZ, sequence (A0A430Q971 1-1241): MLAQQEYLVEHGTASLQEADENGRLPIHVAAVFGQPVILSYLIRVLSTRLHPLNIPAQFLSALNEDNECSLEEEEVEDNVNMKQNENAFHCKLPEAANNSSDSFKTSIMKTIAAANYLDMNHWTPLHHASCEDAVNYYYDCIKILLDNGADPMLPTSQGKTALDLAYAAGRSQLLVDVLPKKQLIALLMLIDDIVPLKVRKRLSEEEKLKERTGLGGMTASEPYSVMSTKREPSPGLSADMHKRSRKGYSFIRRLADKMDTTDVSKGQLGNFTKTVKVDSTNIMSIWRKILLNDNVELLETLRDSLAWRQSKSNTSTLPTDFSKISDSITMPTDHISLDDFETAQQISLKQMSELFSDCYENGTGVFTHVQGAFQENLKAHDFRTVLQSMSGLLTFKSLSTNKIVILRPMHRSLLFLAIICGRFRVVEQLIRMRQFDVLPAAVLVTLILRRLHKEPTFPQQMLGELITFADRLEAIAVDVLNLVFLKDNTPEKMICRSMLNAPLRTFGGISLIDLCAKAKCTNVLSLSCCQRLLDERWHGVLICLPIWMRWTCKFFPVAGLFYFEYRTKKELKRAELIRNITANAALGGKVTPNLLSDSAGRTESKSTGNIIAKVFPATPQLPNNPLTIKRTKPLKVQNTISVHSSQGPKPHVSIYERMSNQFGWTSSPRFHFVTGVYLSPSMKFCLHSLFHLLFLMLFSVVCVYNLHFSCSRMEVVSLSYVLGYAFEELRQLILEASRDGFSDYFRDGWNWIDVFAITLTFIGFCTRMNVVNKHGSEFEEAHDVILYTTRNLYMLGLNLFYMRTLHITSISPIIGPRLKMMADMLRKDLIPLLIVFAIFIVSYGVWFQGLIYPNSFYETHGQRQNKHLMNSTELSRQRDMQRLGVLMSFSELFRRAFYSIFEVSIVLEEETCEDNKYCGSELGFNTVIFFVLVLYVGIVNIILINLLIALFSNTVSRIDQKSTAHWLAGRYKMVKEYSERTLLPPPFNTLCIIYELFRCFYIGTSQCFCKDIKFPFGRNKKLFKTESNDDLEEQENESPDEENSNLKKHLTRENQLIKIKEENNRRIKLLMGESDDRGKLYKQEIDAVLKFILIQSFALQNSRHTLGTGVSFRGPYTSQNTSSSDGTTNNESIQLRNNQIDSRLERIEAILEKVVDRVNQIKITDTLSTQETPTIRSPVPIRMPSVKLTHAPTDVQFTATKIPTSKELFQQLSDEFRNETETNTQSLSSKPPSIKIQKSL

Sh.TRPM[H946Y] = assay: Ca2+ reporter assay, Sh.TRPM[H946Y] mutant; format: cell-based, Schistosoma haematobium; conditions: S4 point mutant
Sb.TRPM[H946Y] = assay: Ca2+ reporter assay, Sb.TRPM[H946Y] mutant; format: cell-based, Schistosoma bovis; conditions: S4 point mutant
Sm.TRPM[H831A]MCLZ = assay: Ca2+ reporter assay, Sm.TRPM[H831A]MCLZ mutant; format: cell-based, Schistosoma mansoni; conditions: binding pocket mutant
Sm.TRPM[R943A]MCLZ = assay: Ca2+ reporter assay, Sm.TRPM[R943A]MCLZ mutant; format: cell-based, Schistosoma mansoni; conditions: binding pocket mutant
Sm.TRPM[Y1117A]MCLZ = assay: Ca2+ reporter assay, Sm.TRPM[Y1117A]MCLZ mutant; format: cell-based, Schistosoma mansoni; conditions: binding pocket mutant
Sm.TRPM[H827A]MCLZ = assay: Ca2+ reporter assay, Sm.TRPM[H827A]MCLZ mutant; format: cell-based, Schistosoma mansoni; conditions: binding pocket mutant
Sm.TRPM[E868A]MCLZ = assay: Ca2+ reporter assay, Sm.TRPM[E868A]MCLZ mutant; format: cell-based, Schistosoma mansoni; conditions: S2 residue mutant
Sm.TRPM[Y864A]MCLZ = assay: Ca2+ reporter assay, Sm.TRPM[Y864A]MCLZ mutant; format: cell-based, Schistosoma mansoni; conditions: S2 residue mutant
Sm.TRPM[H946A]MCLZ = assay: Ca2+ reporter assay, Sm.TRPM[H946A]MCLZ mutant; format: cell-based, Schistosoma mansoni; conditions: alanine mutant
Sm.TRPMMCLZ [3] = target: T1, Sm.TRPMMCLZ; assay: Cell-attached current recordings, HEK293 cells expressing Sm.TRPMMCLZ and GFP; format: cell-based; conditions: 10 μM
Sm.TRPMMCLZ [Y1038A] = format: cell-based, Schistosoma mansoni; conditions: 10 μM, cell-attached
[4] = test system: HEK293 cells expressing GFP alone; assay: Cell-attached current recordings, HEK293 cells expressing GFP alone; format: cell-based; conditions: 10 μM
Sm.TRPMMCLZ [5] = target: T1, Sm.TRPMMCLZ; assay: Confocal Ca2+ imaging, HEK293 cells expressing Sm.TRPMMCLZ; format: cell-based; conditions: 10 μM
adult S. mansoni worms [6] = conditions: cited from earlier work
juvenile worms = conditions: ref 7 (PZQ); 12 ((S)-MCLZ); cited from earlier work
[7] = test system: S. mansoni and S. haematobium infections; conditions: preliminary clinical evaluation; cited from earlier work
S. japonicum worms = conditions: cited from earlier work

## C[C@@H]1N=C(c2ccccc2Cl)c2cc([N+](=O)[O-])ccc2NC1=O [(S)-MCLZ, (S)-meclonazepam]
Adult S. mansoni worms [1]; 1 μM, adult S. mansoni worms, images 1 min after addition
  Effect on worm movement (paralysis): rapid, spastic paralysis
Adult S. mansoni worms [1]; Schistosoma mansoni, read-out: Inhibition of motility, IC50
  IC50: 1540 ± 90 nM
Sm.TRPMMCLZ [2]
  EC50: 1100 nM and ~1000 nM
Sm.TRPMPZQ; HEK293 cells, 1 nM to 100 μM
  Agonist activity at Sm.TRPMPZQ (concentration-response): did not activate
Sm.TRPMPZQ; competition versus (±)-PZQ (0.6 μM), high concentrations (>30 μM)
  Antagonism of PZQ activation of Sm.TRPMPZQ: partially attenuated
Sh.TRPMMCLZ
  EC50: 1400 ± 400 nM
Sj.TRPMMCLZ
  EC50: > 50000 nM
St.TRPMMCLZ
  EC50: > 50000 nM
Sb.TRPMMCLZ
  EC50: 1300 ± 300 nM
Sh.TRPM[H946Y]
  Sensitivity of Sh.TRPM[H946Y] relative to wildtype: lower sensitivity of response
Sb.TRPM[H946Y]
  Sensitivity of Sb.TRPM[H946Y] relative to wildtype: lower sensitivity of response
Sm.TRPM[H831A]MCLZ
  Activation of Sm.TRPM[H831A]MCLZ: little activation
Sm.TRPM[R943A]MCLZ
  Activation of Sm.TRPM[R943A]MCLZ: little activation
Sm.TRPM[Y1117A]MCLZ
  Activation of Sm.TRPM[Y1117A]MCLZ: little activation
Sm.TRPM[H827A]MCLZ
  Activation of Sm.TRPM[H827A]MCLZ: resembled the wildtype channel
Sm.TRPM[E868A]MCLZ
  Activation of Sm.TRPM[E868A]MCLZ (effect of mutation): much less of an effect
Sm.TRPM[Y864A]MCLZ
  Activation of Sm.TRPM[Y864A]MCLZ (effect of mutation): much less of an effect
Sm.TRPM[H946A]MCLZ
  Potency at Sm.TRPM[H946A]MCLZ relative to wildtype: slightly increased potency
Sm.TRPMMCLZ [3]; holding potential of 60 mV as printed
  Cells with evoked inward current: 17/21
Sm.TRPMMCLZ [3]; voltage ramp, I-V linear
  Reversal potential of current-voltage relationship: ~0 mV
Sm.TRPMMCLZ [Y1038A]
  Current response in pore mutant Sm.TRPMMCLZ [Y1038A]: strongly attenuated
[4]
  Cells with evoked currents: 0/10
Sm.TRPMMCLZ [5]
  Ca2+ signals by confocal imaging in cells expressing Sm.TRPMMCLZ: sustained Ca^2+ transients
St.TRPM[Y940H]MCLZ
  EC50: 800 ± 200 nM
Adult S. mansoni worms [6]
  Damage to the worm tegument: pronounced damage to the worm tegument
  Time to spastic paralysis of adult S. mansoni worms: < 1 min
Adult S. mansoni worms [6]; read-out: Sensitivity of schistosome worms, IC50
  IC50: 2000 to 3000 nM
Juvenile worms
  Efficacy against juvenile / immature worms: displays efficacy against juvenile worms
[7]
  Clinical outcome of infection: cured S. mansoni and S. haematobium infections
  Side effects in subjects: dose-dependent drowsiness, dizziness, slurred speech, ataxia, reduced mental alertness, muscle weakness, hypotension, and bradycardia
S. japonicum worms
  Activity against S. japonicum worms: poorly active
